Marks after values point to notes of the source that are not given here.
Assays:
[1] = tested on: formalin-induced tonic inflammatory nociceptive behaviour; assay: Formalin test, rat (weighted behavioural scoring); format: in vivo
Experimental: The formalin test is a chemically-induced tonic pain model in which biphasic changes of nociceptive behaviour are assessed and spinal/supraspinal plasticity of nociception is considered as a molecular basis for neuropathic pain particularly during the second (=late) phase of the test, during which most clinically used drugs against neuropathic pain are active.
The compound was tested for anti-nociceptive properties by use of the weighted behavioural scoring method: Freely moving animals underwent observational assessment of the position of the left hind paw according to a rating score scaled 0-3 before and 10, 20, 30 and 40 min after injection of 0.05 ml of sterile 2.5% formalin under the skin on the dorsal surface of the paw.

[2] = tested on: chronic constriction injury-induced thermal hyperalgesia; assay: Chronic constriction injury (CCI) model, thermal hyperalgesia; format: in vivo, rat; conditions: 5-40 mg/kg i.p.
Experimental: (§1) The effectiveness of harkoseride in reducing spontaneous chronic pain, mechanical allodynia, and thermal hyperalgesia was tested using the chronic constriction injury (CCI) model of peripheral neuropathy, one of the best characterised in vivo animal models used to study chronic pain due to peripheral nerve injury. In this model, loose ligatures are placed around the sciatic nerve, which produces axonal swelling and a partial deafferentation manifested as a significant but incomplete loss of axons in the distal portion of the peripheral nerve. One of the prominent behaviours seen following sciatic nerve ligation is the appearance of hind paw guarding, thought to be an indication of an ongoing spontaneous chronic pain. Support for this idea is derived from reports of increased spinal cord neural activity, and increased spontaneous neuronal discharge in spinothalamic tract neurons and in the ventrobasal thalamus in the absence of overt peripheral stimulation. In addition to the appearance of spontaneous pain behaviours, several abnormalities in stimulus evoked pain occur as a result of CCI, including thermal hyperalgesia and mechanical allodynia. […]
Thermal hyperalgesia was assessed by means of withdrawal latency in response to radiant heat applied to the subplantar surface of the ligated rat hind paw. […]

[3] = tested on: spontaneous pain induced by unilateral chronic constriction injury; assay: Chronic constriction injury (CCI, Bennett-model), spontaneous pain; format: in vivo, rat; conditions: 5-40 mg/kg i.p.
Experimental: as §1
Spontaneous pain (ongoing pain without an apparent external stimulus) of the ligated paw was assessed for 5 min following a 10 min acclimation period by use of a rating score (weighted behaviour score scaled 0-5).

[4] = tested on: Carrageenan-induced mechanical hyperalgesia; assay: Carrageenan-induced mechanical hyperalgesia, paw pressure (Randall-Sellito) test; format: in vivo, rats; conditions: for Effect on Carrageenan-induced mechanical hyperalgesia: all doses tested (10, 20, 40 mg/kg i.p.)
Experimental: Carrageenan-induced mechanical hvderalcesia in rats was induced by subplantar injection of a 0.1 ml of a 2% carrageenan suspension and measured 3 h afterwards by the paw pressure (Randall-Sellito) test.
(§2) Drugs and experimental design: SPM 927 and GBP were suspended in 1% methylcellulose and administered i.p. at doses of 10 mg/kg, 20 mg/kg and 40 mg/kg. Pre-treatment time was 30 min before pain measurement. One group of animals served as controls and consequently received an injection of solvent (10 ml/kg) and another group of animals received a reference compound (Carrageenan test: 10 mg/kg indomethacin; Formalin test: 10 mg/kg morphine). Each compound was tested in a separate experiment and each experiment included a control and a reference group. 10 rats per group were used in the Carrageenan test and 6 mice per group in the formalin test.

[5] = tested on: mechanical allodynia induced by unilateral nerve ligation; assay: Chronic constriction injury (CCI) model, mechanical allodynia (Von Frey); format: in vivo, rat; conditions: 5-40 mg/kg i.p.
Experimental: as §1
Mechanical sensitivity and allodynia of the ligated rat hind paw was quantified by brisk foot withdrawal in response to normally innocuous mechanical stimuli as described previously. […]

[6] = tested on: acute spinal thermal nociception; assay: Tail flick test, rat; format: in vivo
Text: Harkoseride was additionally tested for potential activity in acute spinal thermal nociception using the tail flick test. In this model of acute thermal spinal/reflex hyperalgesia radiant heat is applied to the animal's tail approximately 2 cm from the tip and time latency for withdrawal reaction is automatically assessed by an algometer, a defined maximal stimulus time prevents tissue damage. This test is widely used as an assay for the anti-nociceptive efficacy of pharmacological agents and is highly predictive of acute analgesic efficacy in humans.
Results for 20 and 40 mg/kg harkoseride i.p are shown in table 5 [percent anti-nociception, calculated as [{(post-drug latency)−(pre-drug-latency)}/{(max. latency)−(pre-drug latency)}×100]±SEM, n=12/group]. A baseline or pre-drug tail-flick latency was determined by averaging 5 consecutive measurements taken 2 minutes apart. Vehicle (sterile water 0.04 ml/10 g body weight) or harkoseride were then administered and tail flick latencies recorded at 10-minute intervals for the next 60 minutes.

[7] = tested on: neuropathic pain (CHUNG), tactile stimulation; assay: Neuropathic pain (CHUNG) test, tactile stimulation on lesioned paw; format: in vivo, rat; conditions: tactile and thermal stimulation
Text: The following Tables 8 and 9 show the effects of harkoseride (hereinafter referred to as SPM 927), carbamazepine, levetiracetam, gabapentin and morphine in the neuropathic pain (CHUNG) test in the rat. Eight (8) rats per group were used.

[8] = tested on: formalin-induced nociception (paw licking); assay: Subchronic inflammatory nociception in mice (formalin test); format: in vivo; conditions: for Nociceptive response induced by formalin: 10, 20, 40 mg/kg i.p.; for nociceptive threshold [s]: late phase (20-30 min), 10 mg/kg i.p.
Experimental: Subchronic inflammatory nocicoetion in mice was induced by the subplantar injection of formalin (0.02 ml of a 5% solution). Nociceptive behaviour (paw licking) was measured and quantified between 0 and 5 min (acute pain) and between 20 and 30 min (subchronic inflammatory pain) after formalin.
as §2

SMILES	Formalin-induced tonic inflammatory nociceptive behaviour ([1]; i.p. just prior to formalin injection)	Efficacy in the late phase of the rat formalin test ([1]; late phase)	Chronic constriction injury-induced thermal hyperalgesia [2]	Level of spontaneous pain induced by unilateral chronic constriction injury [3]	Effect on Carrageenan-induced mechanical hyperalgesia [4]	Antinociceptive effect relative to reference compound ([4]; vs 10 mg/kg indomethacin)	Intensity of mechanical allodynia induced by unilateral nerve ligation [5]	Effect on the latency of the tail flick reflex ([6]; 20 and 40 mg/kg i.p.)	Anti-nociceptive effect detectable in the tail-flick test ([6]; rat, in vivo)	Potency compared with the reference compounds in the CHUNG test [7]	Nociceptive response induced by formalin [8]	Efficacy on formalin-induced nociception, similar to that of morphine ([8]; mouse, in vivo)	nociceptive threshold [s] ([8]; GBP experiment)	nociceptive threshold [s] ([8]; SPM 927 experiment)
COC[C@@H](NC(C)=O)C(=O)NCc1ccccc1 [SPM 927, (R)-2-Acetamido-N-benzyl-3-methoxypropionamide]	dose dependant reduction	Significant and dose dependent efficacy	dose dependently reduced	did not change	full reversal	comparable to that of the reference compound Indomethacin	dose dependently reduced	little or no effect	no anti-nociceptive effect	minimum comparable, but usually more potent than the reference compounds	dose dependently suppressed	near complete reversal	–	–
CN1CC[C@]23c4c5ccc(O)c4O[C@H]2[C@@H](O)C=C[C@H]3[C@H]1C5 [Morphine, morphine]	–	–	–	–	–	–	–	–	–	–	–	–	0 ± 0^a s	10 ± 8^a s
NCC1(CC(=O)O)CCCCC1 [GBP, gabapentin, reference compound]	–	–	–	–	no significant effect	–	–	–	–	–	slightly but not significantly inhibited	–	–	–

Reference: patent US7875652B2, “Method and composition for treating pain or tinnitus aureum” (UCB Pharma GmbH, priority 2001, dated 2011)
